# From patent US20200246380A1, “Pharmaceutical Composition for Preventing or Treating Autoimmune Disease, and Method for Producing Same” (priority 2017, published 2020)
# What was measured:
# Type in all cases: cell-based, C57BL/6 mice
# [1] = tested on: plasmacytoid dendritic cells; assay: IL-10 secretion from pDC induced with various toll-like receptor agonists, ELISA (Example 3); conditions: pDC stimulated with ODN1826 (1 μg/ml), 24 hours; vs non-treatment
# Protocol: Ligands listed in Table 2 were used as the toll-like receptor agonist. […] The separated cells (5×10^5 cells/ml) were inoculated into a 48 well plate. ODN1826 (1 μg/ml) was applied thereto and the cells were cultured for 24 hours. Then, supernatant was separated. The secretion pattern of the immunosuppressive cytokine IL-10 was then checked by ELISA (enzyme linked immunosorbent assay). In this connection, in order to check the effect from the treatment using the toll-like receptor agonist, the case in which the toll-like receptor agonist was not applied thereto during the differentiation of the immature dendritic cells is shown as Comparative Example (non).
# [2] = tested on: plasmacytoid dendritic cells; assay: Cytokine secretion from pDC according to treatment time of toll-like receptor agonist, ELISA (Example 4); conditions: agonist applied at start of differentiation (0 day treatment) or 3 days thereafter; ODN1826 24 hours; vs no-treatment
# Description: Differentiation into the plasmacytoid dendritic cells was induced by the same method as in Example 1 in order to check the immune tolerance inducing effect of the toll-like receptor agonist according to the treatment time point. Further, the toll-like receptor agonists were applied at the start time of the differentiation (0-day treatment) and were applied on 3 days after the start of differentiation (3 day treatment). After the total 8 days culturing, the plasmacytoid dendritic cells were isolated therefrom at a purity equal to or greater than 85% using a plasmacytoid dendritic cell separation kit (Miltenyi Biotec, Auburn, Calif.) and a magnetic cell sorting system (Vario MACS: Miltenyi Biotec, Auburn, Calif.). The separated cells (5×10^5 cells/ml) were inoculated into a 48 well plate. ODN1826 (1 μg/ml) was applied thereto and the cells were cultured for 24 hours. Then, supernatant was separated. The secretion pattern of the cytokine was then checked by ELISA (enzyme linked immunosorbent assay). In this connection, in order to check the effect from the treatment using the toll-like receptor agonist, the case in which the toll-like receptor agonist was not applied thereto during the differentiation of the immature dendritic cells is shown as Comparative Example (no-treatment, non).
# [3] = tested on: immature dendritic cells; assay: Differentiation of immature dendritic cells into plasmacytoid dendritic cells with toll-like receptor agonist (Example 1); conditions: Pam3 100 to 500 ng/ml on third day of Flt3L differentiation; treatment vs non-treatment
# Protocol: Specifically, thigh bone marrow samples were collected from C57BL/6 mice using bone marrow collecting syringes. The collected bone marrow was washed with phosphate buffered saline (PBS), and red blood cells were removed therefrom using ammonium chloride. Separated cells (3×10^6 cells/well) were inoculated in a 6-well plate. Then, 1 ml of RPMI 1640 containing 10% FBS (fetal bovine serum), 2 mM L-glutamine, 100 U/ml penicillin/streptomycin, 50 μM mercaptoethanol, 0.1 mM non-essential amino acid, 1 mM sodium pyruvate and 250 ng/ml FLT3L was added thereto to initiate culture and differentiation of the cells. On the third day after the start of differentiation, Pam3 was applied thereto at a concentration of 100 to 500 ng/ml. On 5 days from the start of differentiation, 1 ml of the RPMI 1640 was further supplemented thereto. The cells were cultured for 8 days. […] Further, in the case (TLRs-pDC) when the immature dendritic cells were treated with the toll-like receptor agonist, the ratio of the number of plasmacytoid dendritic cells obtained after the eighth day to the number of the initial immature dendritic cells was measured. […]
Molecule,expression level of IL-10 from pDC differentiated via treatment with the agonist [1],expression level of IFN-α [2],expression level of IFN-β [2],expression level of IL-10 [2],expression level of IL-12p70 [2],expression level of TNF-α [2],differentiation efficiency into plasmacytoid dendritic cells [3]
"CC(C)Cn1cnc2c(N)nc3ccccc3c21 [TLR7 agonist, Imiquimod]",significantly increased,–,–,–,–,–,–
LPS [TLR4 agonist],significantly increased,–,–,–,–,–,–
Pam3 [TLR2 agonist],significantly increased,inhibited,inhibited,significantly increased,inhibited,inhibited,no difference
